Result data for 12 compounds are collected here from patent US20230045737A1, “SUBSTITUTED ISOINDOLINONES AS MODULATORS OF CEREBLON-MEDIATED NEO-SUBSTRATE RECRUITMENT” (Vividion Therapeutics, Inc., priority 2018, published 2023).

CRBN-DDB1, sequence (Q96SW2 whole entry): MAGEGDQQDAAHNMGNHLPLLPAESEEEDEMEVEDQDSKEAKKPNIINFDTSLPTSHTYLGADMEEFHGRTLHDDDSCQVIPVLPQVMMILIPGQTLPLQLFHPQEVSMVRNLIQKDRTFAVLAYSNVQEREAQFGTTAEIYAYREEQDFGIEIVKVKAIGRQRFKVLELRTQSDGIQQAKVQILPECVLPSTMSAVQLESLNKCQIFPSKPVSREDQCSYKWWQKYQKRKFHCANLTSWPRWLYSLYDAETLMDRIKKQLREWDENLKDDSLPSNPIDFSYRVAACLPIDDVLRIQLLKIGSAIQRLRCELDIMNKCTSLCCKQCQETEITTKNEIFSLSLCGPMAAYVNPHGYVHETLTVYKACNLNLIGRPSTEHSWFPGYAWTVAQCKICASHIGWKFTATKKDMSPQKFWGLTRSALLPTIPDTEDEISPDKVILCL
CRBN-DDB1, sequence (Q16531 whole entry partner): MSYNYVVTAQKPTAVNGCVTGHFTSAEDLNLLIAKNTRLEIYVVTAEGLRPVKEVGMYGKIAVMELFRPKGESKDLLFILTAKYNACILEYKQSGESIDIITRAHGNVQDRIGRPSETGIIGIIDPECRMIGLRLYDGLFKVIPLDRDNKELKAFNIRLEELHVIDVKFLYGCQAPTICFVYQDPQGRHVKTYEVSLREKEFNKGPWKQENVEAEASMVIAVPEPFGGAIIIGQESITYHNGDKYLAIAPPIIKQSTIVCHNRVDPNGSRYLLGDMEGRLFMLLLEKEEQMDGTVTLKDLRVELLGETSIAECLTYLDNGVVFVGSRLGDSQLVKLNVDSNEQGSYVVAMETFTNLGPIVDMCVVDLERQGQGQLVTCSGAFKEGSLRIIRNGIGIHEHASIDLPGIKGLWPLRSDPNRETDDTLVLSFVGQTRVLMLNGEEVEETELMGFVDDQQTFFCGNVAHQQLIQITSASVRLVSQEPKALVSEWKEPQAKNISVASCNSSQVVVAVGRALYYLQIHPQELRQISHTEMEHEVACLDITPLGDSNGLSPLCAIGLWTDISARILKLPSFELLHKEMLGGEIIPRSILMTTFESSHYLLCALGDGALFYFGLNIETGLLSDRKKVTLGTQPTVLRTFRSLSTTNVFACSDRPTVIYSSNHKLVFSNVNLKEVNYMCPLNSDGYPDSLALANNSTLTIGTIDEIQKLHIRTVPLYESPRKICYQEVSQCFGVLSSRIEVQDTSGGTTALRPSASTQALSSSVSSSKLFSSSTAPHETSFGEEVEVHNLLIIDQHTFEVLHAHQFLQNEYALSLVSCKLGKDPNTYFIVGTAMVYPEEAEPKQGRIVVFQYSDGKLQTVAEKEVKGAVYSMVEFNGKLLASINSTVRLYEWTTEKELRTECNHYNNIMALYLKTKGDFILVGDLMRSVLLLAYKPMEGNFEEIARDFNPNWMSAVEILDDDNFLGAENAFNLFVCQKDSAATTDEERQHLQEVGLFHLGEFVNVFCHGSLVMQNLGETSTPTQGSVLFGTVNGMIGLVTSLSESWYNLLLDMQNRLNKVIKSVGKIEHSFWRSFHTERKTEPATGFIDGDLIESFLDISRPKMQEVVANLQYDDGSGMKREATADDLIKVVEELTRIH

The assay concerns the target CRBN-DDB1 (Homo sapiens, UniProt Q96SW2). Briefly: CRBN Fluorescence Polarization Assay with BODIPY-IMid Tracer. The format is binding. Also noted: unit not given here. Particulars: competition with 30 nM BODIPY-IMiD tracer for 500 nM CRBN-DDB1, 3-fold serial dilution. How it is done: Promega assay was used to compare bifunctional ligands of the present invention to compete with IMiDs tracer binding to CRBN.
25 uM BODIPY-IMiD tracer (aliquots from Promega 160 uM stock solution)
Buffer: 100 mM Tris pH7.5, 150 mM NaCl, no DTT
Plates: PCR plate 96-well, Black 384-well
384-well plate 20 uL total volume
10 uL of CRBN-DDB1, BODIPY-IMiD added to 10 uL of ligand
A full 384-well assay plate was used to test bifunctional compounds with and without protein, Pomalidomide used as a control. Two 96-well PCR plates were prepared as follows: • 1. Plate 1 • a. To wells A1-A11 on a 96-well PCR plate 100 uM bifunctional compound was added to 40 uL total volume • i. 38 uL of buffer was added • ii. 2 uL was added of 2 mM bifunctional or IMiD compound in DMSO or 2 uL of 0.2 mM for CC220 analogs • b. To well A12 Pomalidomide was added as control • i. 38 uL buffer was added • ii. 2 uL of 2 mM Pomalidomide in DMSO was added • 2. Plate 2 • a. To wells A1-A10 on a 96-well PCR plate 100 uM bifunctional compound was added to 40 uL total volume • i. 38 uL of buffer was added • ii. 2 uL of 2 mM bifunctional compound in DMSO was added • b. To well A11 CC220 control was added • i. 38 uL buffer added • ii. 2 uL of 0.2 mM for CC220 was added • c. To well A12 DMSO control was added • i. Added buffer to 38 uL • ii. Added 2 uL of DMSO • 3. Prepared 7 mL of Buffer with 5% DMSO for serial dilution • a. 26.67 uL to rows B-H on 96-well plate • 4. Serial dilutions of samples in row A1 3-fold • a. 13.3 uL of A1 added to 26.67 uL in A2 • 5. Added 10 uL to 384-well plate • a. Added A1 from Plate 1 to wells A1 and A2 on 384-well plate (top half of 384-well plate) • b. Added A1 from Plate 2 to wells I1 and I2 on 384-well plate ([…] of 384-well plate)
A preparation was made of 500 nM CRBN-DDB1, 30 nM IMiD complex. To 4 mL of the prepared 500 nM CRBN-DDB1, 30 nM BODIPY-IMiD was added 47.6 uL of 46 uM CRBN-DDB1, 3.752 mL of Buffer (4 additions of 938 uL), 200 uL of DMSO, and 4.8 uL of 25 uM BODIPY IMiD stock. This incubated at room temperature for 10 minutes and then 10 uL was added to all wells on 384-well plate except wells M23-24, N23-24, O23-24, P23-24. Gain Control samples were then made consisting of 950 uL of Buffer, 50 uL of DMSO, 1.2 uL of 25 uM BODIPY IMiD stock, and 10 uL was added to wells M23-24, N23-24, O23-24, P23-24.
(In general: Fluorescence polarisation rises when a labelled molecule tumbles more slowly, as on binding a larger partner.)
Consider `O=C1CC[C@@H](N2Cc3c(OCc4ccc(CN5CCOCC5)cc4)cccc3C2=O)C(=O)N1`, for which the Result is given as 0.16.

The compound `O=C1CCC(N2Cc3c(OCCO)cccc3C2=O)C(=O)N1` (stereo not drawn) [3-(4-(2-hydroxyethoxy)-1-oxoisoindolin-2-yl)piperidine-2,6-dione] yielded a Result of 0.93.

Compound `O=C1CCC(N2Cc3c(OCc4ccc(Cn5ccnc5)cc4)cccc3C2=O)C(=O)N1` (stereo not drawn) [3-(4-((4-((1H-imidazol-1-yl)methyl)benzyl)oxy)-1-oxoisoindolin-2-yl)piperidine-2,6-dione] showed a Result of 0.16.

In turn, `O=C1CCC(N2Cc3c(OCc4cc(CN5CCOCC5)ccn4)cccc3C2=O)C(=O)N1` (stereo not drawn) [3-(4-((4-(morpholinomethyl)pyridin-2-yl)methoxy)-1-oxoisoindolin-2-yl)piperidine-2,6-dione] returned a Result of 0.94.

The compound `COc1ccc2c(c1)C(=O)N(C1CCC(=O)NC1=O)C2` (stereo not drawn) [3-(6-methoxy-1-oxoisoindolin-2-yl)piperidine-2,6-dione] yielded a Result of 1.43.

`O=C1CC[C@H](N2Cc3c(OCc4ccc(Br)cc4)cccc3C2=O)C(=O)N1` [(S)-3-(4-((4-bromobenzyl)oxy)-1-oxoisoindolin-2-yl)piperidine-2,6-dione] showed a Result of 0.25.

`O=C1CC[C@H](N2Cc3c(OCc4ccccc4)ccc(Br)c3C2=O)C(=O)N1` [(S)-3-(4-(benzyloxy)-7-bromo-1-oxoisoindolin-2-yl)piperidine-2,6-dione]: the Result amounted to 0.1.

In turn, `O=C1CC[C@H](N2Cc3cc(OCc4ccccc4)ccc3C2=O)C(=O)N1` [(S)-3-(5-(benzyloxy)-1-oxoisoindolin-2-yl)piperidine-2,6-dione] displayed a Result of 0.54.

`Nc1cccc2c1C(=O)N(C1CCC(=O)NC1=O)C2=O` (stereo not drawn) [Pomalidomide, pomalidomide, reference compound] registered a Result of 1.57.

As to `COC(=O)C1CCCN(Cc2ccc(COc3cccc4c3CN(C3CCC(=O)NC3=O)C4=O)cc2)C1` (stereo not drawn) [methyl 1-(4-(((2-(2,6-dioxopiperidin-3-yl)-1-oxoisoindolin-4-yl)oxy)methyl)benzyl)piperidine-3-carboxylate], the Result was 0.06.

Regarding `COC(=O)C1CCN(Cc2ccc(COc3cccc4c3CN(C3CCC(=O)NC3=O)C4=O)cc2)CC1` (stereo not drawn) [methyl 1-(4-(((2-(2,6-dioxopiperidin-3-yl)-1-oxoisoindolin-4-yl)oxy)methyl)benzyl)piperidine-4-carboxylate], the Result was 0.05.

In the case of `COC(=O)C1CCN(Cc2ccc(COc3cccc4c3CN(C3CCC(=O)NC3=O)C4=O)cc2)C1` (stereo not drawn) [methyl 1-(4-(((2-(2,6-dioxopiperidin-3-yl)-1-oxoisoindolin-4-yl)oxy)methyl)benzyl)pyrrolidine-3-carboxylate], the Result was determined as 0.14.
